Numbers after ± are expanded uncertainties.
How the values were obtained:
[1] = Molar enthalpy of transition or fusion; details: Crystal; DSC
[2] = Crystal; DTA
[3] = molar heat capacity at constant pressure; details: 298.15 K; 101.33 kPa; Crystal; Small sample (50 mg) DSC

| Molar enthalpy of transition or fusion [1] [kJ/mol] | Normal melting temperature [2] [°C] | molar heat capacity at constant pressure [3] [J/K/mol] | Compound |
| --- | --- | --- | --- |
| 23.9 ± 0.73 | 137.27 ± 0.39 | 205.46 ± 14 | Cc1ccc(S(N)(=O)=O)cc1 [p-toluenesulfonamide] |
| 23.7 ± 0.55 | 152.32 ± 0.39 | 172.91 ± 9.4 | NS(=O)(=O)c1ccccc1 [benzenesulfonamide] |
| 28.3 ± 0.75 |  | 193.48 ± 21 | Cc1ccccc1S(N)(=O)=O [o-toluenesulfonamide] |
| 22.3 ± 0.51 | 164.53 ± 0.39 | 199.76 ± 10 | Nc1ccc(S(N)(=O)=O)cc1 [4-aminobenzenesulfonamide] |
| 23.4 ± 0.54 | 153.46 ± 0.39 | 173.93 ± 21 | Nc1ccccc1S(N)(=O)=O [2-aminobenzenesulfonamide] |

From the NIST ThermoML archive (doi:10.1016/j.jct.2011.11.026)
